# Assay results taken from ChEMBL document CHEMBL5614399, “Design and Assessment of First-Generation Heterobifunctional PPARα/STING Modulators” (ACS Med Chem Lett, 2024).
# The source made the active and inactive calls. The calls are words filed in the database; no cut-off is given here.
# Experiments:
# [1] = test system: 661W; assay: Cytoprotective activity against 4HNE-induced mouse 661W cells assessed as reduction in ROS level at 1 uM preincubated for 2 hrs followed by 4-HNE addition and measured after 24 hrs in presence of A229 by CM-H2DCFDA staining based fluorescence analysis; type: functional, cell-based; details: time 26.0 hrs
# [2] = test system: 661W; assay: Cytoprotective activity against 4HNE-induced mouse 661W cells assessed as reduction in ROS level at 0.5 uM preincubated for 2 hrs followed by 4-HNE addition and measured after 24 hrs in presence of A229 by CM-H2DCFDA staining based fluorescence analysis; type: functional, cell-based; details: time 26.0 hrs
smiles,measurement,setting,value
O=C(Nc1ccc(O)c(NS(=O)(=O)c2ccc(F)cc2)c1)c1ccc(-c2ccccc2)cc1,Activity,[1],Active
same,Activity,[2],Active
